4 compounds from ChEMBL document CHEMBL4043128, “Design, synthesis and biological evaluation of Lenalidomide derivatives as tumor angiogenesis inhibitor” (Bioorg Med Chem Lett, 2017) can be followed below.

≈ marks a conversion by molar mass, not a printed value. Calls of active or inactive are those of the source. The rule behind the calls is not given here.

Assay [1] concerns EC9706. The assay is described as follows: Antiproliferative activity against human EC9706 cells after 48 hrs by CCK-8 assay. The settings on record: for IC50: EC9706, 48 h. It counts as functional, cell-based.
For assay [2], the system named is EC9706. The assay is described as follows: Antiproliferative activity against human EC9706 cells at >= 600 ug/mL after 48 hrs by CCK-8 assay relative to control. It counts as functional.
Assay [3] relates to EC9706. As to the kind of experiment: Antiproliferative activity against human EC9706 cells at 150 ug/mL after 48 hrs by CCK-8 assay. It counts as functional, cell-based.

For the compound `Cc1ccc(C(=O)Nc2cccc3c2CN(C2CCC(=O)NC2=O)C3=O)cc1` (stereo unspecified), in assay [1], the Activity result was “Dose-dependent effect” and the IC50 is 262 µg/mL (≈ 694 µM). Moreover, the Activity in assay [2] worked out at 100%. Moreover, in assay [3], the result was Active.

For the compound `Cc1ccc(S(=O)(=O)Nc2cccc3c2CN(C2CCC(=O)NC2=O)C3=O)cc1` (stereo unspecified), in assay [1], the Activity entry was “Dose-dependent effect” and half-maximal inhibition (IC50) was put at 225 µg/mL (≈ 545 µM). The Activity in assay [2] is 100%. Further, the outcome in assay [3] was Active.

`Cc1ccc(CNc2cccc3c2CN(C2CCC(=O)NC2=O)C3=O)cc1` (stereo unspecified): in assay [1], the Activity result was “Dose-dependent effect” and the half-maximal inhibitory concentration (IC50) worked out at 310 µg/mL (≈ 852 µM). The Activity in assay [2] was 100%. In addition, in assay [3], the outcome was Active.

As for `Nc1cccc2c1CN(C1CCC(=O)NC1=O)C2=O` (stereo unspecified) [LENALIDOMIDE], the Activity entry was “Dose-dependent effect” in assay [1] and 100% in assay [2]. This compound also registered an IC50 in assay [1] of 340 µg/mL (≈ 1310 µM). Also, in assay [3], the result was Active.
